Measured values from patent US20250351832A1, “PHYTOCHEMICALS AS BIOPESTICIDES AND BIOSTIMULANTS” (KAY BEE BIO ORGANICS PVT. LTD., priority 2024, published 2025).
Where two headings read alike, the source gives them in different places.

How the values were obtained:
[1] = system: Mealy Bug
[2] = cited from earlier work
[3] = system: Aphid; experiment: whole plant or invertebrate; conditions: 48 h
[4] = system: Spodoptera litura; conditions: in vivo
[5] = system: Alternaria alternata; experiment: Alternaria leaf spot/blight on inoculated tomato plants (Ex. 28); format: in vivo; conditions: tomato plants, Alternaria alternata; after 7 days; dose 1 ml/gm/lit
[6] = system: Spodoptera litura
[7] = system: Mealy Bug; remark: listed apart in the source
[8] = system: Thrips
[9] = system: tomato seedlings; experiment: Response of tomato plants, greenhouse growth (Ex. 30); format: in vivo; conditions: tomato seedlings, dose 1 ml/gm/lit; for Plant Height 5th Day / Stem Girth 5th Day / CCI 5th Day: 5th day after application; for Plant Height 10th Day / Stem Girth 10th Day / CCI 10th Day: 10th day after application; for Plant Height % Increase over pre on 10th Day / Stem Girth % Increase over pre on 10th Day / CCI % Increase over pre on 10th Day / Root Length (cm) 10th Day / Root Length % Increase over control: 10th day; for Root Length % Increase over control: vs water control
[10] = system: Alternaria alternata; experiment: In vitro poisoned food technique against fungus (Ex. 20); format: cell-based; conditions: poisoned food technique, PDA medium, dose 1 ml/gm/lit., after seven days; for inhibition of growth at 1 mL or g/L: vs untreated control, read-out: % Inhibition of growth
[11] = system: Aphid
[12] = system: Spodoptera litura; experiment: whole plant or invertebrate; conditions: 72 h
[13] = system: Helicoverpa armigera
[14] = system: chili seedlings; experiment: Response of chili plants, greenhouse growth (Ex. 31); format: in vivo
[15] = system: Thrips; experiment: whole plant or invertebrate; conditions: in Gossypium hirsutum, 48 h
[16] = system: Thrips; conditions: Thrips on cotton leaves; dose 1 ml/gm/lit.; 10 insects/treatment; 48 hrs after application
[17] = system: Mite; conditions: mite on okra plants, green house, dose 1 ml/gm/lit. spray
[18] = system: Mite; conditions: Dose 1 ml/gm/lit.
[19] = system: Aphid; conditions: Aphids on cotton plants, green house; dose 1 ml/gm/lit.; 10 insects/plant, 10 plants/treatment; 48 hrs
[20] = system: Helicoverpa armigera; conditions: Helicoverpa armigera 3rd instar on chickpea plants, dose 1 ml/gm/lit. spray
[21] = Table 13, descriptive, no test described
[22] = read-out: % Corrected Mortality at 48 Hrs.
[23] = read-out: % Mortality at 48 Hrs.
[24] = read-out: % Corrected Mortality at 72 Hrs.
[25] = read-out: % Mortality at 72 Hrs.
[26] = chili seedlings, dose 1 ml/gm/lit, 10th day
[27] = mealy bug on cotton plants, green house, dose 1 ml/gm/lit. spray, 48 hrs after application
[28] = thrips on cotton plants, greenhouse, dose 1 ml/gm/lit. spray, 48 hrs after application
[29] = chili seedlings, dose 1 ml/gm/lit, 5th day after application
[30] = chili seedlings, dose 1 ml/gm/lit, 10th day after application

In the case of CC(C)c1ccc(C=O)cc1 [Cuminaldehyde], the “% Corrected Mortality at 48 Hrs.” value ([1]; in vivo) is given as 50.00%, the “Antifungal Activity - Mode of action” value [2, 21] is given as “Mycelial growth inhibition” and the “Antioxidant Activity - Mode of action” value [2, 21] is given as “Increase in reactive oxygen”. For the same compound, the “Bactericidal Activity - Mode of action” value [2, 21] was “Great antimicrobial effects”, the “Insecticidal Activities - Mode of action” value [2, 21] was “Acute Toxicity Effects” and the “Nematicidal Activity - Mode of action” value [2, 21] was “Efficient hatching inhibitor”. For the same compound, the “Phytotonic Effect” value ([2]; Table 13, effect on plants, descriptive) was “Boost plant”, the mortality at 1 mL or g/L [3, 22] was 47.1% and the mortality at 1 mL or g/L [3, 23] was 55%. For the same compound, the “% Corrected Mortality at 72 Hrs.” value [4] was 52.63%, the “% Mortality at 72 Hrs.” value [4] was 55.00% and the “% Disease reduction over Control” value [5] was 52.89%. The “Total No. of dead insect at 72 Hrs.” value ([6]; in vivo) was 5.25, the “% Corrected Mortality at 48 Hrs.” value ([7]; in vivo) was 50.00% and the “% Corrected Mortality at 48 Hrs.” value ([8]; in vivo) was 33.33%. For the same compound, the “% Mortality at 48 Hrs.” value ([8]; in vivo) was 40.00%, the “Plant Height 5th Day” value [9] was 6.62 cm and the “Stem Girth 5th Day” value [9] was 1.77 mm. The “Plant Height 10th Day” value [9] was 7.33 cm, the “Stem Girth 10th Day” value [9] was 2.08 mm and the “Plant Height % Increase over pre on 10th Day” value (“Plant Height % Increase” below) [9] was 31.36%. For the same compound, the “Stem Girth % Increase over pre on 10th Day” value (shortened to “Stem Girth % Increase”) [9] was 64.12%, the “CCI 5th Day” value [9] was 13.64 and the “CCI % Increase over pre on 10th Day” value [9] was 16.83%. The “Root Length (cm) 10th Day” value [9] was 3.81 cm, the “CCI 10th Day” value [9] was 14.65 and the “Root Length % Increase over control” value [9] was 14.59%. For the same compound, the “Mean colony Diameter (mm)” value [10] was 51.50 mm, the inhibition of growth at 1 mL or g/L [10] was 41.5% and the “% Corrected Mortality at 48 Hrs.” value ([11]; in vivo) was 45.71%. For the same compound, the “% Mortality at 48 Hrs.” value ([11]; in vivo) was 52.50%, the mortality at 1 mL or g/L [12, 24] was 50% and the mortality at 1 mL or g/L [12, 25] was 52.5%. For the same compound, the “Total No. of dead insect at 72 Hrs.” value ([13]; in vivo) was 3.75, the “CCI Pre” value [14] was 10.29 and the “Plant Height (cm) Pre” value [14] was 4.27 cm. The “CCI 5th Day” value ([14]; 120 h) was 12.10, the “Plant Height (cm) 5th Day” value ([14]; 120 h) was 5.77 cm and the “CCI 10th Day” value ([14]; 240 h) was 13.9. The “Plant Height (cm) 10th Day” value ([14]; 240 h) was 6.40 cm, the “Root Lenght % Increase over control” value ([14]; 240 h) was 13.94% and the “CCI % Increase over pre on 10th Day” value [14, 26] was 35.08%. For the same compound, the “Plant Height % Increase” value [14, 26] was 50.00%, the “Root Lenght (cm) 10th Day” value [14, 26] was 3.12 cm and the “Stem Girth % Increase” value [14, 26] was 40.41%. For the same compound, the mortality at 1 mL or g/L [15, 22] was 34.3% and the mortality at 1 mL or g/L [15, 23] was 42.5%.
With CC1CCC(C(C)C)C(O)C1 (centres unmarked) [Menthol] the “Total No. of dead insect at 48 Hrs.” value ([1]; Mealy Bug on cotton leaves, dose 1 ml/gm/lit., 10 insects/treatment, 4 replications, 48 Hrs.) was 6.50, the “% Mortality at 48 Hrs.” value ([1]; Mealy Bug on cotton leaves, dose 1 ml/gm/lit., 48 Hrs.) was 65.00% and the “% Corrected Mortality at 48 Hrs.” value ([1]; Mealy Bug on cotton leaves, dose 1 ml/gm/lit., 48 Hrs., corrected for water control) was 63.16%. The “Acaricidal Activity - Mode of action” value [2, 21] was “Causes mortality & reduction”, the “Antifungal Activity - Mode of action” value [2, 21] was “Inhibits fungal growth” and the “Antioxidant Activity - Mode of action” value [2, 21] was “Possesses antioxidant”. The “Bactericidal Activity - Mode of action” value [2, 21] was “Menthol showed”, the “Insecticidal Activities - Mode of action” value [2, 21] was “Lower larval weight, reduced” and the mortality at 1 mL or g/L [3, 22] was 70.6%. For the same compound, the mortality at 1 mL or g/L [3, 23] was 75%, the “Total No. of dead insect at 48 Hrs.” value [16] was 7.50 and the “% Disease reduction over Control” value [5] was 56.20%. For the same compound, the “Total No. of dead insect at 72 Hrs.” value ([6]; Spodoptera litura on castor leaves, dose 1 ml/gm/lit., 10 insects/treatment, 72 hrs after application) was 2.75, the “% Mortality at 48 Hrs.” value [7, 27] was 67.50% and the “Total No. of dead insect at 48 Hrs.” value [7, 27] was 67.50. For the same compound, the “% Corrected Mortality at 48 Hrs.” value ([7]; mealy bug on cotton plants, green house, dose 1 ml/gm/lit. spray, 48 hrs, corrected for water control) was 63.89%, the “% Mortality at 48 Hrs.” value [8, 28] was 72.50% and the “Total No. of dead insect at 48 Hrs.” value [8, 28] was 72.50. For the same compound, the “% Corrected Mortality at 48 Hrs.” value ([8]; thrips on cotton plants, greenhouse, dose 1 ml/gm/lit. spray, 48 hrs, corrected for water control) was 69.44%, the “% Mortality at 48 Hrs.” value ([17]; 48 hrs after application) was 42.50% and the “Total No. of dead insect at 48 Hrs.” value ([17]; 48 hrs after application) was 42.50. The “% Corrected Mortality at 48 Hrs.” value ([17]; 48 hrs, corrected for water control) was 39.47%, the “Total No. of dead insect at 48 Hrs.” value ([18]; 10 insects/treatment, 4 replications, okra leaves) was 4.50 and the “% Corrected Mortality at 48 Hrs.” value ([18]; 48 hrs) was 40.54%. The “% Mortality at 48 Hrs.” value ([18]; 48 hrs) was 45.00%, the “Plant Height 5th Day” value [9] was 6.78 cm and the “Stem Girth 5th Day” value [9] was 1.48 mm. The “Plant Height 10th Day” value [9] was 7.18 cm, the “Stem Girth 10th Day” value [9] was 2.19 mm and the “Plant Height % Increase” value [9] was 27.30%. For the same compound, the “Stem Girth % Increase” value [9] was 54.01%, the “CCI 5th Day” value [9] was 13.48 and the “CCI % Increase over pre on 10th Day” value [9] was 27.44%. The “Root Length (cm) 10th Day” value [9] was 3.93 cm, the “CCI 10th Day” value [9] was 14.35 and the “Root Length % Increase over control” value [9] was 18.18%. For the same compound, the “Mean colony Diameter (mm)” value [10] was 52.00 mm, the inhibition of growth at 1 mL or g/L [10] was 40.9% and the “Total No. of dead insect at 48 Hrs.” value [19] was 75.00. The “Total No. of dead insect at 48 Hrs.” value ([11]; Dose 1 ml/gm/lit., 10 insects/treatment, 4 replications, cotton leaves) was 7.00, the “% Corrected Mortality at 48 Hrs.” value ([11]; Dose 1 ml/gm/lit., 48 hrs) was 65.71% and the “% Mortality at 48 Hrs.” value ([11]; Dose 1 ml/gm/lit., 48 hrs) was 70.00%. The “% Mortality at 72 Hrs.” value ([20]; 72 hrs after application) was 55.00%, the “% Corrected Mortality at 72 Hrs.” value ([20]; 72 hrs, corrected for water control) was 55.00% and the mortality at 1 mL or g/L [12, 24] was 23.7%. The mortality at 1 mL or g/L [12, 25] was 27.5%, the “Total No. of dead insect at 72 Hrs.” value ([13]; Helicoverpa armigera on okra fruits, dose 1 ml/gm/lit., 10 insects/treatment, 4 replications, 72 Hrs.) was 6.00 and the “% Mortality at 72 Hrs.” value ([13]; Helicoverpa armigera on okra fruits, dose 1 ml/gm/lit., 72 Hrs.) was 60.00%. For the same compound, the “% Corrected Mortality at 72 Hrs.” value ([13]; Helicoverpa armigera on okra fruits, dose 1 ml/gm/lit., 72 Hrs., corrected for water control) was 60.00%, the “CCI 5th Day” value [14, 29] was 10.24 and the “Plant Height (cm) 5th Day” value [14, 29] was 6.48 cm. The “CCI % Increase over pre on 10th Day” value [14, 26] was 44.78%, the “Plant Height % Increase” value [14, 26] was 45.21% and the “Root Lenght (cm) 10th Day” value [14, 26] was 3.02 cm. For the same compound, the “Stem Girth % Increase” value [14, 26] was 42.37%, the “CCI 10th Day” value [14, 30] was 13.87 and the “Plant Height (cm) 10th Day” value [14, 30] was 6.52 cm. For the same compound, the “Root Lenght % Increase over control” value ([14]; chili seedlings, dose 1 ml/gm/lit, 10th day, vs water control) was 10.37%, the mortality at 1 mL or g/L [15, 22] was 71.4% and the mortality at 1 mL or g/L [15, 23] was 75%.
